According to patent publication US20160271090A1, “FRATAXIN ENHANCER” (TOKYO UNIVERSITY OF AGRICULTURE, priority 2013, published 2016):

Test system: frataxin protein in human normal fibroblast strain WI-38
Experiment: Western blot of frataxin protein in WI-38 cells cultured with ALA
Format: cell-based
Details: ALA 2 mM for 2 hours in DMEM without FBS, then 24 hours in DMEM with 10% FBS, compared to Sample 2 (medium without ALA)
Description: • (i) Human normal fibroblast strain WI-38 was cultured in Dulbecco's modified Eagle medium (DMEM) comprising 10% fetal bovine serum (FBS) under 5% CO2. (ii) 5-Aminolevulinic acid (ALA) was added at a final concentration of 2 mM to DMEM without FBS, and cells of (i) were cultured in said medium at 37° C. for 2 hours to allow ALA to be incorporated. (iii) Then, the cells were transferred to DMEM containing 10% FBS and cultured at 37° C. for 24 hours. (iv) The cells were collected by trypsin treatment, washed with phosphate buffered saline (PBS), and then suspended in SDS sample buffer (50 mM Tris-HCl, pH6.8, 2% SDS, 2.5%-mercaptoethanol, 10% glycerol, and 0.01% bromophenol blue), and heated at 100° C. for 5 minutes to allow lysis. […] In this Example, the said cell lysate is referred to as “Sample 2.” Samples 1 and 2 were subjected to 12% SDS-polyacrylamide electrophoresis, and Western blot analysis employing an anti-human frataxin antibody (from Santa Cruz Biotechnology, cat. #sc-25820) and an HRP-labeled anti-rabbit IgG secondary antibody (from GE Healthcare, cat. #N[MUT]) was performed by conventional means. […]

For `NCC(=O)CCC(=O)O` [ALA, 5-aminolevulinic acid], the “amount of frataxin protein (Western blot, FIG. 1)” value was “clear increase”.
